Usually viability stands for the share of living cells, or the viability signal relative to a control. High values mean less harm to the cells, low ones more harm to the cells. By IC50 is commonly meant the concentration that gives 50% inhibition. Low readings indicate higher potency, high ones lower potency.

Data on six molecules can be found in article PMC10126245 (Frontiers in Cellular and Infection Microbiology, 2023).

In brackets after ≈: the same amount, converted by molar mass. Several values for one entry are separate records, joined by “and”; a condition that tells them apart may be missing. Equal entries are not always repeated.

Data set [1] deals with CT binding to GM1 receptor (Vibrio cholerae serotype O1, UniProt P01556).
Sequence of CT binding to GM1 receptor (P01556 22-124 limits assumed): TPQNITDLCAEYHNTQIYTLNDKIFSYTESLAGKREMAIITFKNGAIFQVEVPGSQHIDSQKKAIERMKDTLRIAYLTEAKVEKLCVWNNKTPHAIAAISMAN
The subject of data set [2] is CT-induced cAMP levels in CHO cell line. Type of data set: cell-based.
Data set [3] concerns CT-induced cell elongation in CHO cell line. Type of data set: cell-based.
The subject of data set [4] is CFCF-induced fluid accumulation in ligated-ileal loops. Also noted: species or system Swiss albino mice. The settings on record: mouse, in vivo.
Data set [5] concerns CFCF-induced cAMP levels in ligated-ileal loops. Also noted: species or system Swiss albino mice. The conditions noted are these: mouse, in vivo.
Data set [6] concerns CFCF induced histopathological changes in ileal loops. Also noted: species or system Swiss albino mice. The conditions noted are these: mouse, in vivo.
Data set [7] deals with CHO cell line. The conditions noted are these: Chinese hamster.
The subject of data set [8] is CHO cell line. Nature of the data set: cells. The conditions noted are these: Cricetulus griseus, 24 h.
The next data set can be described thus: in vitro. The settings on record: Chinese hamster.
The subject of a further data set is CT binding to GM1. The conditions noted are these: 50mM; cited from earlier work.
Data set [9] concerns FITC-CTB binding to Vero cells. The settings on record: 10µg/ml; cited from earlier work.
Another data set has as its system CT-induced cAMP. The conditions noted are these: 10µg/mL; cited from earlier work.

For the molecule `O=C(/C=C/c1ccc(O)c(O)c1)O[C@@H]1C[C@](O)(C(=O)O)C[C@@H](O)[C@H]1O` [Chlorogenic acid], in [1], the “Binding inhibition of CT to GM1” value is greater than 50%; the “Binding inhibition percentage (BI%)” value is 92% and 81%. Moreover, the “Bound percent (B%) of cAMP” value in [2] is 81% and 78%. Moreover, in data set [3], the “Protection against CT-induced cell elongation” value was “greater protective activities”. Also, in data set [4], the “Mean W/L ratio” value was 0.132 and 0.176; the “Mean weight/length (W/L) ratio of ligated-ileal loops” value (shortened to “Mean weight/length (W/L) ratio”) was 0.132 g/cm and 0.176 g/cm. Also, in [5], the “cAMP levels in ligated-ileal tissues” value was 1.18% and 1.89%. For the same molecule, the “Protection against CFCF induced histopathological changes (inflammation, edema)” value in data set [6] is on record as “substantial protective activity”. Also, in the data set on CHO cell line [7], the “NC1 (non-cytotoxic concentration)” value was 100 µg/mL, the “NC2 (non-cytotoxic concentration)” value came out at 50 µg/mL and the viability was 97.2%. The molecule also had an IC50 in the data set on CHO cell line [8] of 398 ± 5.4 µg/mL (≈ 1120 µM). This molecule registered a viability in the data set “in vitro” of 90.5%.
Consider `O=c1oc2c(O)c(O)cc3c(=O)oc4c(O)c(O)cc1c4c23` [Ellagic acid], for which, in [1], the “Binding inhibition of CT to GM1” value is greater than 50% and the “Binding inhibition percentage (BI%)” value worked out at 97%. In data set [2], the “Bound percent (B%) of cAMP” value was 82% and 81%. In data set [3], the “Protection against CT-induced cell elongation” value is “greater protective activities”. In addition, in [4], the “Mean W/L ratio” value is 0.091 and 0.094; the “Mean weight/length (W/L) ratio” value is 0.091 g/cm and 0.094 g/cm. Also, the “cAMP levels in ligated-ileal tissues” value in [5] is 0.62% and 1.31%. The “Protection against CFCF induced histopathological changes (inflammation, edema)” value in data set [6] was “substantial protective activity”. Moreover, in the data set with CHO cell line [7], the “NC1 (non-cytotoxic concentration)” value amounted to 30 µg/mL, the “NC2 (non-cytotoxic concentration)” value worked out at 15 µg/mL and the viability is reported as 97.5%. The molecule further returned an IC50 in the data set on CHO cell line [8] of 116 ± 9.6 µg/mL (≈ 382 µM). The molecule further came in with a viability in the data set “in vitro” of 93.2%.
Turning to `O=C(O)c1cc(O)c(O)c(O)c1` [Gallic acid, reference compound], the “Bound percent (B%) of cAMP” value in data set [2] is 80% and 60%. Also, in data set [4], the “Mean W/L ratio” value is 0.222 and 0.188; the “Mean weight/length (W/L) ratio” value worked out at 0.188 g/cm. Also, the “cAMP levels in ligated-ileal tissues” value in data set [5] is 1.79% and 3.39%. The “Protection against CFCF induced histopathological changes (inflammation, edema)” value in data set [6] is on record as “indistinct amelioration”. Moreover, in the data set with CHO cell line [7], the “NC1 (non-cytotoxic concentration)” value amounted to 25 µg/mL, the “NC2 (non-cytotoxic concentration)” value amounted to 12.5 µg/mL and the viability was 97.9%. The half-maximal inhibitory concentration (IC50) in the data set on CHO cell line [8] was 103 ± 1.1 µg/mL (≈ 604 µM). Moreover, in the data set on CT binding to GM1, the “Binding inhibition of CT to GM1” value is given as 40%. Further, in [9], the “Inhibition of binding of FITC-CTB to Vero cells” value is recorded as 23%. Moreover, the “Decrease in cAMP compared to CT control” value in the data set with CT-induced cAMP is 76%. The molecule further registered a viability in “in vitro” of 93.5%.
As to `O=C(CCc1ccc(O)cc1)c1c(O)cc(O)cc1O[C@@H]1O[C@H](CO)[C@@H](O)[C@H](O)[C@H]1O` [Phloridzin], the “Binding inhibition of CT to GM1” value in data set [1] is on record as greater than 50%. Further, the “Bound percent (B%) of cAMP” value in data set [2] is 71% and 50%. In the data set on CHO cell line [7], the “NC1 (non-cytotoxic concentration)” value is 75 µg/mL, the “NC2 (non-cytotoxic concentration)” value was 37.5 µg/mL and the viability is 97.6%. Further, the concentration for half-maximal inhibition (IC50) in the data set with CHO cell line [8] was 298 ± 3.9 µg/mL (≈ 683 µM). The molecule also came in with a viability in the data set “in vitro” of 94.8%.
As for `C[C@@H]1O[C@@H](Oc2c(-c3ccc(O)c(O)c3)oc3cc(O)cc(O)c3c2=O)[C@H](O)[C@H](O)[C@H]1O` [Quercetrin, reference compound], the “Bound percent (B%) of cAMP” value in [2] is 66% and 47%. Further, in the data set with CHO cell line [7], the “NC1 (non-cytotoxic concentration)” value is 60 µg/mL, the “NC2 (non-cytotoxic concentration)” value came to 30 µg/mL and the viability is listed as 96.3%. Moreover, the IC50 in the data set on CHO cell line [8] was 234 ± 3.7 µg/mL (≈ 521 µM). The “Inhibition of binding of FITC-CTB to Vero cells” value in [9] is listed as 20%. In addition, the “Decrease in cAMP compared to CT control” value in the data set on CT-induced cAMP is 59%. Also, the viability in the data set “in vitro” came out at 91%.
`C[C@@H]1O[C@@H](OC[C@H]2O[C@@H](Oc3c(-c4ccc(O)c(O)c4)oc4cc(O)cc(O)c4c3=O)[C@H](O)[C@@H](O)[C@@H]2O)[C@H](O)[C@H](O)[C@H]1O` [Rutin]: the “Binding inhibition percentage (BI%)” value in data set [1] is 9% and 2%. Further, in data set [2], the “Bound percent (B%) of cAMP” value was 53% and 44%. Moreover, in the data set with CHO cell line [7], the “NC1 (non-cytotoxic concentration)” value turned out to be 70 µg/mL, the “NC2 (non-cytotoxic concentration)” value came out at 35 µg/mL and the viability was found to be 97.6%. The same molecule gave a 50% inhibitory concentration (IC50) in the data set with CHO cell line [8] of 287 ± 6.9 µg/mL (≈ 471 µM). Further, in “in vitro”, the viability is 92.4%.
